ChEMBL document CHEMBL1201862, “PubChem BioAssay data set” (2004)
Activity calls are given as the source filed them.

Assays:
INS1 = assay: beta cell apoptosis inhibitors, cytokine rescue, dose response, luminescence, retest (AID 449756); assay type: functional, cell-based; conditions: Rattus norvegicus;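 note: cell death triggered by IL-1 beta plus TNF-alpha plus IFN-gamma mixture; protective hits raise ATP signal compared with cytokine alone wells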
[1] = inhibitors of SNCA 5'UTR-driven reporter translation, confirmation, H4 neuroglioma cells, luminescence (AID 1988); assay type: functional, cell-based
[2] = inhibitors of firefly luciferase expression or activity, dose response, H4 neuroglioma cells, luminescence (AID 1990); assay type: functional, cell-based
[3] = Luminescence Cell-Based Dose Response HTS to Identify Inhibitors of 5'UTR Stem-Loop Driven Prion Protein mRNA Translation in H4 Neuroglioblastoma Cells. [Related pubchem assays: 1827 (Project Summary), 1813 (Primary HTS)]; assay type: functional
Cytochrome P450 2C19 = Cytochrome P450 2C19 (Homo sapiens, UniProt P33261); assay: Cytochrome panel assay with activity outcomes. Panel member name: p450-cyp2c19 Compounds with AC50 equal or less than 10 uM are considered active; assay type: functional; conditions: read-out: AC50
Chain of Cytochrome P450 2C19 (P33261 whole entry): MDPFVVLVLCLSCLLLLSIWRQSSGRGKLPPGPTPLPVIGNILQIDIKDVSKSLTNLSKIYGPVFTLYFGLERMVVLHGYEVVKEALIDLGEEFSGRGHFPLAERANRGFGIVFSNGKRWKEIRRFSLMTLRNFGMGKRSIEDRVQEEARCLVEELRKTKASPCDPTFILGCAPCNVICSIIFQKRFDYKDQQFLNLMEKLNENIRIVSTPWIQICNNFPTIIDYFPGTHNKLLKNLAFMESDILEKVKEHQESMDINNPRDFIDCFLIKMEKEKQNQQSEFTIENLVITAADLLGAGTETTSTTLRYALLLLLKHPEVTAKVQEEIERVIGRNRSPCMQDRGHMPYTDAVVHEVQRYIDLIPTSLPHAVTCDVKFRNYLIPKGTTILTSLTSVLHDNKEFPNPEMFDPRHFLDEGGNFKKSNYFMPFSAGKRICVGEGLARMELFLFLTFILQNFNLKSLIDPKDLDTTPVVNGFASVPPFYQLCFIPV

Cytochrome P450 3A4 = Cytochrome P450 3A4 (Homo sapiens, UniProt P08684);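 note: CYP3A4 tested as one member of a cytochrome P450 panel screen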
Chain of Cytochrome P450 3A4 (P08684 whole entry): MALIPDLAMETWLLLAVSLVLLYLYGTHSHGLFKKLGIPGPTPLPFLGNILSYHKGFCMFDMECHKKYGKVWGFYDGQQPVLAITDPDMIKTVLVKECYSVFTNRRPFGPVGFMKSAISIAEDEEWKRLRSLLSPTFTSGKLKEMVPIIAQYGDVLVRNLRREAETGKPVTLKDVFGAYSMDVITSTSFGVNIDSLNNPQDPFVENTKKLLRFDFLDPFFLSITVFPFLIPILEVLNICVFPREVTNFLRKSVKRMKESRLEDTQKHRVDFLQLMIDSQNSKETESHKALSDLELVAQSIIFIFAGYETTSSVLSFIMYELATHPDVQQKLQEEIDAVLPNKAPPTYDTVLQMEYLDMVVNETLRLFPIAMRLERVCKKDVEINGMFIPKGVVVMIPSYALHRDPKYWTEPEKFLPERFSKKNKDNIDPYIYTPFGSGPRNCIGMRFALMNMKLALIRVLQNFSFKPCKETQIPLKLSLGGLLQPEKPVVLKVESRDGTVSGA

[4] = molecular target: T1, Heat shock factor protein 1 (Mus musculus, UniProt P38532); assay: HSF1 potentiators in luciferase reporter cells, confirmation, cell-based, NIH3T3, luminescence, dose retest (AID 435004); assay type: functional;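 note: stress induced by proteasome inhibitor MG132 added 30 min after compound; luciferase reporter driven by HSF1 response element in NIH3T3 cells; actives raise luminescence as potentiators of the MG132 stress response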
T1 sequence (P38532 whole entry): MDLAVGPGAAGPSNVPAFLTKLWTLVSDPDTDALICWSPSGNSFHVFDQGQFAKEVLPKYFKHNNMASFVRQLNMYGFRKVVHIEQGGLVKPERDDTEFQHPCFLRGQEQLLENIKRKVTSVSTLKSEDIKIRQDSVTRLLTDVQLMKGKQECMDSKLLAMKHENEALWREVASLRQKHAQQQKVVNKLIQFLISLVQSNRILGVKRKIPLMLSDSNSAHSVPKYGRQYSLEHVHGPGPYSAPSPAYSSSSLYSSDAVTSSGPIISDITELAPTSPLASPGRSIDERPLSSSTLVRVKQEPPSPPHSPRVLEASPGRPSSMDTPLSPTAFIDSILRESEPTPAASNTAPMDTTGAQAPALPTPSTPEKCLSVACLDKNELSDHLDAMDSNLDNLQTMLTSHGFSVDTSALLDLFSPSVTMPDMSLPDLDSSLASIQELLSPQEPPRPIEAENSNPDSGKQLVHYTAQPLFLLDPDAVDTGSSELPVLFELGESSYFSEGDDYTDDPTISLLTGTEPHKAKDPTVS

[5] = inhibitors of intracellular T. cruzi replication, confirmation, NIH3T3 host cells, beta-gal luminescence (AID 2044); assay type: functional, cell-based;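 note: intracellular parasites grown in NIH/3T3 mouse fibroblasts as host cells; luminescent beta-galactosidase reporter signal from transgenic T. cruzi replicating inside host cells; inhibitors lower the luminescence signal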
[6] = cytotoxicity toward NIH3T3 fibroblasts, dose response, counter-screen, cell-based, ATP luminescence, mouse fibroblasts (AID 2010); assay type: functional;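 note: cells exposed to compound for about 90 hours before reading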
[7] = molecular target: T2, Corticotropin-releasing factor receptor 2/Corticotropin-releasing factor-binding protein (Homo sapiens, UniProt P24387+Q13324); assay: Dose Response confirmation of uHTS hits for small molecule antagonists of the CRF-binding protein and CRF-R2 receptor complex.; assay type: functional; conditions: read-out: IC50_Mean
T2 sequence (Q13324 whole entry): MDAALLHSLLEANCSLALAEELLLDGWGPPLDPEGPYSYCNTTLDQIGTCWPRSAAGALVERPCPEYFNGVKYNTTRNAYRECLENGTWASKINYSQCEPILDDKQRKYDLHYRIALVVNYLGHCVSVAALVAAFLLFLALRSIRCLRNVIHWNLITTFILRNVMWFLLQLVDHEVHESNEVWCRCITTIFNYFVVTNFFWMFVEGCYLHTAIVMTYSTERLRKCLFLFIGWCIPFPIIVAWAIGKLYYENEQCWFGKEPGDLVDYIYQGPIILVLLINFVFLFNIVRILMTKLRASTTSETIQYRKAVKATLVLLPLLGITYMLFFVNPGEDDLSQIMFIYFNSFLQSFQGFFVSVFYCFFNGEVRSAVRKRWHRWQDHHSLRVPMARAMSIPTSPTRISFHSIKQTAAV
T2 sequence (P24387 whole entry): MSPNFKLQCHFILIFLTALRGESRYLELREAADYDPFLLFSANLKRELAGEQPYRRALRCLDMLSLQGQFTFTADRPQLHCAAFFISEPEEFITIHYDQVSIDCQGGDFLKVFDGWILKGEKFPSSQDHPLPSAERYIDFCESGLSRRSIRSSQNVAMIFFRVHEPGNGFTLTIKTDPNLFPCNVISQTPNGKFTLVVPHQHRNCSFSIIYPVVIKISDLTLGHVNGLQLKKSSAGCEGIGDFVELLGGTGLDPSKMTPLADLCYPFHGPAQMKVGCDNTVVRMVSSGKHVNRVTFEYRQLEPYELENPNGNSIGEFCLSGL

[8] = molecular target: T2, Corticotropin-releasing factor receptor 2/Corticotropin-releasing factor-binding protein; assay: activators of CRF receptor 2 with binding protein – uHTS hits, confirmation (AID 602473); assay type: functional; conditions: read-out: EC50_Mean
[9] = Luminescence Cell-Based Dose Retest to Confirm Inhibitors of Cancer Stem Cells. [Related pubchem assays (depositor defined):AID2717, AID2721]; assay type: functional; conditions: Homo sapiens
[10] = HEp-2 cell cytotoxicity, dose response, cytotoxicity control for RSV inhibitor project, HTS (AID 2410); assay type: functional; conditions: human respiratory syncytial virus
Cytochrome P450 2C9 = Cytochrome P450 2C9 (Homo sapiens, UniProt P11712)
Chain of Cytochrome P450 2C9 (P11712 whole entry): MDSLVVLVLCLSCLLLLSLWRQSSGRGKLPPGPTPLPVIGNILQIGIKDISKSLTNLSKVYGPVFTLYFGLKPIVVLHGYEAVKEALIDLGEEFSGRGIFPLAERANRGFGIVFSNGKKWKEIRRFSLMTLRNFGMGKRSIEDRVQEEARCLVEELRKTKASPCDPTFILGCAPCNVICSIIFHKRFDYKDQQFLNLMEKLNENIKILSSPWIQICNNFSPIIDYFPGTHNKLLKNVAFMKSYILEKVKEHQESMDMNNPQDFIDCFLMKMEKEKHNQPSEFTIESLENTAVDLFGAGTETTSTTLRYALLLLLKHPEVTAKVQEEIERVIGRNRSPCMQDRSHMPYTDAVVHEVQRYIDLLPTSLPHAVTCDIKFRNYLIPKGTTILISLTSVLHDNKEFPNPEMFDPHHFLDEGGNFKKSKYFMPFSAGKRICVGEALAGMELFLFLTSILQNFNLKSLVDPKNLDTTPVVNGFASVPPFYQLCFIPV

Cytochrome P450 1A2 = molecular target: T3, Cytochrome P450 1A2 (Homo sapiens, UniProt P05177);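 note: PubChem cytochrome P450 panel assay, CYP1A2 panel member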
T3 sequence (P05177 whole entry): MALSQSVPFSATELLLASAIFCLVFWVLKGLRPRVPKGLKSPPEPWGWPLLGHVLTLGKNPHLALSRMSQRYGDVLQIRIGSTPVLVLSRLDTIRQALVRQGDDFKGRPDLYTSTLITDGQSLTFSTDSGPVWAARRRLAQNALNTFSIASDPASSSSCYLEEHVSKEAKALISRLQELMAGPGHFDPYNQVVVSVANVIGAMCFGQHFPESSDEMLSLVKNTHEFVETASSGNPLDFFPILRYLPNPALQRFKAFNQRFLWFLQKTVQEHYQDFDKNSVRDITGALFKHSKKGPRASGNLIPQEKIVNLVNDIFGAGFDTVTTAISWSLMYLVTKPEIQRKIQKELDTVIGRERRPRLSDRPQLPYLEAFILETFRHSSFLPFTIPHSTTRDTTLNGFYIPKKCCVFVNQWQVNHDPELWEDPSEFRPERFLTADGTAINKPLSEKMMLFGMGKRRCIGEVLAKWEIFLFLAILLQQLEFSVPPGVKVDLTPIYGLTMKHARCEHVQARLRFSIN

Cc1cc(C)nc(OC(=O)c2ccc(Cl)cc2Cl)n1
AC50 (INS1): 84.3 µM (active)
EC50 [1]: 10.9 µM (active)
EC50 [2]: 11.4 µM (active)
EC50 [3]: > 120 µM (not active)

CCCCCCCC/C=C\CCCCCCCC(N)=O [OLEAMIDE]
AC50 (Cytochrome P450 2C19): 31.6 µM (inconclusive)
AC50 (Cytochrome P450 3A4): 50.1 µM (inconclusive)

COc1ccc2c(OC)c3ccoc3nc2c1OC [SKIMMIANINE]
AC50 (Cytochrome P450 3A4): 7.94 µM (inconclusive)

Cc1cc(NC(=O)Cn2cnc3sc(C)c(-c4ccccc4)c3c2=O)no1
EC50 [4]: > 260 µM (inactive)

N=c1c2c(ncn1CCCO)Oc1ccc3ccccc3c1C2c1ccccc1 (stereo unspecified)
AC50 (INS1): 24.4 µM (active)

Cc1[nH]c2c(ccc3ccccc32)c1C1C(CCN)C1(C)C (stereo unspecified)
EC50 [5]: 2.56 µM (active)
EC50 [6]: 13.2 µM (active)
AC50 (INS1): 15.1 µM (active)

Cn1c(C(=O)NCCc2ccccc2)cc(=O)n(C)c1=O
IC50 [7]: > 47.1 µM (inactive)
EC50 [8]: > 53 µM (inactive)

Cc1cc(O)c(C2(O)C(=O)Nc3cc(Br)ccc32)cc1C (stereo unspecified)
IC50 [7]: > 47.1 µM (inactive)
EC50 [8]: > 53 µM (inactive)

Cc1cccc(Cn2cc(/C=C/[N+](=O)[O-])c3ccccc32)c1
AC50 [9]: 3.7 µM (active)
CC50 [10]: 12.7 µM (active)

Cc1nnc(NC(=O)C2CCCN(c3ncccn3)C2)s1 (stereo unspecified)
IC50 [7]: > 47.1 µM (inactive)
EC50 [8]: > 53 µM (inactive)

CC(C)(C)CC(C)(C)c1ccc(OCOCCOCCO)c(Cc2cc(C(C)(C)CC(C)(C)C)cc(Cc3cc(C(C)(C)CC(C)(C)C)ccc3OCOCCOCCO)c2OCOCCOCCO)c1
AC50 (Cytochrome P450 3A4): 12.6 µM (inconclusive)

CCCSc1nnc2n(N)c(=O)c3ccccc3n12
AC50 (Cytochrome P450 3A4): 28.2 µM (inconclusive)

O=C(NC(=S)NCCc1ccccn1)c1ccco1
IC50 [7]: > 47.1 µM (inactive)
EC50 [8]: > 53 µM (inactive)

CCCn1nc(NC(=O)CC(C)C)c2cc3ccccc3nc21
AC50 (Cytochrome P450 2C19): 7.94 µM (inconclusive)
AC50 (Cytochrome P450 3A4): 3.16 µM (inconclusive)

CN(CC1CCCO1)S(=O)(=O)c1ccc(C(=O)Nc2nc(-c3ccccn3)cs2)cc1 (stereo unspecified)
AC50 (INS1): 2.42 µM (active)

N=c1sc2ccccc2n1CC[S-].c1ccc2c(c1)sc1[n+]2CCS1
AC50 (Cytochrome P450 2C9): 1.58 µM (inconclusive)
AC50 (Cytochrome P450 3A4): 3.16 µM (inconclusive)

COc1ccc(N2CCN(C(=O)CSc3nnc4c5cc(C)ccc5n(C)c4n3)CC2)cc1
AC50 (Cytochrome P450 1A2): 5.62 µM (inconclusive)
AC50 (Cytochrome P450 2C9): 2.51 µM (inconclusive)
AC50 (Cytochrome P450 3A4): 1.12 µM (inconclusive)

C=CCN1C(=O)C(Cc2ccc(OCC)cc2)S/C1=N/c1ccc(C(=O)O)cc1 (stereo unspecified)
EC50 [4]: > 260 µM (inactive)

CSc1ccc(CNc2ccccc2)cc1
AC50 (Cytochrome P450 3A4): 35.5 µM (inconclusive)

O=C(CSc1nnc2c(Cl)cc(C(F)(F)F)cn12)N(Cc1ccccc1)Cc1ccccc1
EC50 [4]: > 260 µM (inactive)

Cc1ccccc1Cn1nc(C)c(NC(=O)C2c3ccccc3Oc3ccccc32)c1C
EC50 [4]: > 260 µM (inactive)
